Legend:
[1] = test system: P388; test: Inhibitory activity against P388 murine leukemia at 2 mg/kg concentration; type: functional, Mus musculus
[2] = test system: Mus musculus; test: Number of surviving Mice in the presence (N,N''-bis(2-chloroethyl)-N-nitrosourea) of BCNU after 60 days of administration of the compound; Survivals= 6/6; type: functional
[3] = test system: Mus musculus; test: Number of surviving Mice after 60 days of administration of the compound; Survivals= 0/6; type: functional
[4] = organism: Mus musculus; test: Rate of survival of treated Mice to survival of controls * 100; type: functional

Structure (SMILES): COc1ccc2nc3cc(Cl)ccc3c(NCCCN(CCCN(CCn3cnc4c(N)ncnc43)C(=N)N)C(=N)N)c2c1
- Survival [1]: 16.2 days
- Survival [2]: 6
- Survival [3]: 0
- T/C [4]: 109

From ChEMBL document CHEMBL1132116, “Abasic site recognition in DNA as a new strategy to potentiate the action of anticancer alkylating drugs?” (1999)
